Some test systems named below: SF-295 CNS; HCT-15 colon; NCI/ADR-RES ovarian; UO-31 renal; SK-MEL-2 melanoma; ACHN renal; BT-549 breast; SF-268 CNS; RXF 393 renal; EKVX NSCLC.
Experiment in all cases: DTP human tumour cell line panel, 48 h

Molecules are shown by their SMILES. “And” between values parts separate entries of the source, which are not always exact repeats. Equal values may be shown once.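 Where inhibition never reached the appropriate level, the endpoint shown equals the highest concentration tested. Otherwise, values were interpolated linearly from a five-concentration, 48-hour dose response in 96-well plates. GI50 marks 50% less growth. TGI: concentration producing complete growth inhibition.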

Usually TGI stands for the concentration giving total growth inhibition. Read a low TGI as greater sensitivity of the cells. As for `CCCCC(=C=C1CCCCC1O)C1CCCN1C(=O)OC(C)(C)C` (centres undefined), the TGI in the test with SF-295 CNS came out at 28 µM; in the test on HCT-15 colon, 32.3 µM; in the test with NCI/ADR-RES ovarian it was 30.6 µM; with UO-31 renal, 35.8 µM; with SK-MEL-2 melanoma it was 30 µM; with ACHN renal it was 29.2 µM. Further, the TGI in the test with BT-549 breast turned out to be 35.4 µM; with SF-268 CNS it was 32.7 µM; with RXF 393 renal, 27.1 µM; with EKVX NSCLC, 28.4 µM.
For the compound `COC1(OC)/C(=C(\N)C=O)NC(C)(C)N1O`, the TGI in the test on SF-295 CNS, in the test on NCI/ADR-RES ovarian, with UO-31 renal, in the test on SK-MEL-2 melanoma, in the test on ACHN renal and in the test on BT-549 breast was more than 100 µM each time. For the same compound, the TGI in the test on RXF 393 renal and in the test on EKVX NSCLC was more than 100 µM each time.
Take `CC(=O)Nc1ncc2c(n1)-c1ccccc1OC2`: the TGI in the test on SF-295 CNS, in the test with HCT-15 colon, in the test with NCI/ADR-RES ovarian, with UO-31 renal, with SK-MEL-2 melanoma and in the test with ACHN renal was more than 100 µM each time. Further, the TGI with BT-549 breast, in the test on SF-268 CNS, in the test on RXF 393 renal and in the test on EKVX NSCLC was more than 100 µM throughout.
`O=C1N2CCc3c([nH]c4ccccc34)C23CC2CCCC12S3` (centres undefined): the TGI in the test with SF-295 CNS is more than 50 µM; in the test with HCT-15 colon, more than 50 µM; with NCI/ADR-RES ovarian, 43.9 µM; with UO-31 renal it was more than 50 µM; in the test with SK-MEL-2 melanoma it was more than 50 µM; in the test on ACHN renal, more than 50 µM. The TGI with BT-549 breast, in the test with SF-268 CNS, in the test with RXF 393 renal and in the test on EKVX NSCLC was more than 50 µM throughout.
`COc1cc(O)c2c(c1)C(O)C(O)CC1OC1C(=O)/C=C/CC(C)OC2=O` (centres undefined): the TGI in the test on SF-295 CNS stood at 46.6 µM; with HCT-15 colon, 17 µM; in the test with NCI/ADR-RES ovarian it was 30.3 µM; with UO-31 renal it was 17.1 µM; in the test on SK-MEL-2 melanoma it was 13.5 µM; in the test with ACHN renal, 17 µM. The TGI in the test on BT-549 breast worked out at 6.1 µM; with SF-268 CNS, 46.3 µM; in the test on RXF 393 renal it was 5.6 µM; with EKVX NSCLC, 35.8 µM.
Regarding `CCOc1ccc(NC(=S)/N=C/C(C(=O)Nc2ccccc2C)=C(\C)O)cc1`, the TGI with SF-295 CNS, in the test on HCT-15 colon, in the test on NCI/ADR-RES ovarian, in the test with UO-31 renal, in the test on SK-MEL-2 melanoma and in the test on ACHN renal was more than 100 µM in each case. Moreover, the TGI in the test with BT-549 breast, with SF-268 CNS, in the test with RXF 393 renal and with EKVX NSCLC was more than 100 µM throughout.
As to `O=C(O)CNC(=O)c1cccc2c(=O)c3ccccc3[nH]c12`, the TGI in the test on SF-295 CNS, in the test on HCT-15 colon, in the test with NCI/ADR-RES ovarian, in the test on UO-31 renal, with SK-MEL-2 melanoma and with ACHN renal was more than 100 µM in each case. Further, the TGI in the test on BT-549 breast, in the test with SF-268 CNS, in the test with RXF 393 renal and in the test on EKVX NSCLC was more than 100 µM each time.
Consider `COC1=CC2(C=CC1=O)CCN=c1c(O)c3c(c(O)c12)=NC=N3` (centres undefined), for which the TGI in the test with SF-295 CNS, in the test on HCT-15 colon, in the test with NCI/ADR-RES ovarian, in the test on UO-31 renal, in the test with SK-MEL-2 melanoma and in the test on ACHN renal was more than 100 µM throughout. For the same compound, the TGI with BT-549 breast, in the test with SF-268 CNS, with RXF 393 renal and in the test with EKVX NSCLC was more than 100 µM each time.
As to `COc1cc([C@@H]2c3cc4c(cc3[C@@H](Nc3ccc(Cl)cc3C(=O)c3ccccc3Cl)[C@H]3COC(=O)[C@H]23)OCO4)cc(OC)c1OC`, the TGI in the test on SF-295 CNS was more than 37.4 µM; with NCI/ADR-RES ovarian, more than 37.7 µM; in the test on UO-31 renal, more than 100 µM; in the test on SK-MEL-2 melanoma, more than 100 µM; with BT-549 breast it was more than 100 µM; with SF-268 CNS, more than 100 µM. The results for the TGI in the test with RXF 393 renal and with EKVX NSCLC were more than 75.3 µM and more than 100 µM, respectively.
Turning to `CC(C)CC1c2[nH]c3ccccc3c2C[C@H]2C(=O)NC(COC(C)(C)C)C(=O)N12` (some centres undefined), the TGI was 35 µM with SF-295 CNS; 80.2 µM in the test with HCT-15 colon; 56.7 µM in the test with NCI/ADR-RES ovarian; more than 100 µM in the test on UO-31 renal; 38.8 µM with SK-MEL-2 melanoma; 88.4 µM in the test on ACHN renal. In addition, the TGI in the test with BT-549 breast turned out to be 60.9 µM; in the test on SF-268 CNS it was 57.5 µM; with RXF 393 renal, 41 µM; in the test with EKVX NSCLC, 71.7 µM.
`COc1ccc(-c2c(C(C)=O)c(C)n(C3OC(CO)C(O)C(O)C3O)c(=S)c2C#N)cc1` (centres undefined): the TGI in the test on SF-295 CNS, in the test on HCT-15 colon, in the test with NCI/ADR-RES ovarian, with UO-31 renal, in the test on ACHN renal and with BT-549 breast was more than 100 µM in each case. Further, the TGI with SF-268 CNS, in the test with RXF 393 renal and with EKVX NSCLC was more than 100 µM in each case.
The term GI50 denotes the concentration giving 50% growth inhibition. Turning to `C=CCN1C(=O)/C(=C/c2ccc(Cl)cc2)N=C1SC1OC(COC(C)=O)C(OC(C)=O)C(OC(C)=O)C1OC(C)=O` (centres undefined), the GI50 was 18.2 µM and 49.9 µM with SF-295 CNS; 41.1 µM and 16 µM in the test with HCT-15 colon; 11.5 µM and 31.7 µM with NCI/ADR-RES ovarian; 12.6 µM and 30.1 µM with SK-MEL-2 melanoma; 14.5 µM and 37.4 µM with ACHN renal; 4.94 µM and 11.6 µM with RXF 393 renal. In addition, the TGI was 54 µM and > 100 µM in the test on SF-295 CNS; more than 100 µM with HCT-15 colon; more than 100 µM in the test on NCI/ADR-RES ovarian; 34.6 µM and 95.8 µM in the test with SK-MEL-2 melanoma; more than 100 µM with ACHN renal; > 100 µM and 84.1 µM with BT-549 breast. Besides, the TGI was 5.46 µM in the test on SF-268 CNS; 19.5 µM and 47.5 µM in the test with RXF 393 renal; more than 100 µM with EKVX NSCLC.
Consider `Cc1cc(S(=O)(=O)NC(=NCC(=O)NN)NN)c(S)cc1Cl`, for which the TGI with SF-295 CNS, in the test with HCT-15 colon, in the test on NCI/ADR-RES ovarian, with SK-MEL-2 melanoma, in the test on ACHN renal and in the test with BT-549 breast was more than 10 µM each time. Moreover, the TGI in the test with SF-268 CNS, in the test with RXF 393 renal and with EKVX NSCLC was more than 10 µM throughout.
Consider `c1ccc(C/C(=N\Nc2nc3ccccc3o2)c2ccccn2)cc1`, for which the TGI with SF-295 CNS turned out to be 3.25 µM; with HCT-15 colon, 4.64 µM; in the test on NCI/ADR-RES ovarian, 0.0824 µM; in the test with UO-31 renal, 4.55 µM; in the test with SK-MEL-2 melanoma, 20.7 µM; in the test with ACHN renal, 3.31 µM. Besides, the TGI in the test on BT-549 breast is 5.73 µM; in the test with SF-268 CNS, 0.921 µM; in the test with RXF 393 renal, 1.92 µM; in the test on EKVX NSCLC, less than 0.0267 µM.

(Values after PubChem BioAssay (NCI).)
